Source: patent US6297230A, “Cyanoaziridines for treating cancer” (priority 2000, dated 2001)
Converted amounts (≈) assume the structure as drawn.

Experiments:
[1] = system: WiDr colon cancer cells; experiment: In vitro antitumor activity, WiDr colon; format: cell-based; details: Homo sapiens
From the text: (§1) 1) in vitro tumor cell viability assays using MTT and SRB dye reaction endpoints.
(§2) Sulforhodamine B (SRB) Assay for Adherent Tumor Cells
(§3) Sulforhodamine B (SRB) is a protein binding aminoxanthene dye with two sulfonic acid groups. (Lillie, R. D., H. J. Conn's Biological Stains, 9th Ed., Baltimore; Williams & Wilkins, 1977.) It quantitates whole cell protein content by the intensity of dye staining and relates this to the number of viable cells. […] The SRB assay is used for cells which normally adhere to surfaces (in this case plastic culture flasks or petri dishes) as part of their requirement for growth and division in vitro. The SRB assay is currently used by the National Cancer Institute in the anticancer drug screening program. (Skehan, et al., J Natl Cancer Inst 82:1107-1112, 1990; Rubinstein, et al., J Natl Cancer Inst 82:1113-1118, 1990.) Methodologic comparisons have shown that SRB results are linear for the number of tumor cells over a 100-fold range, and for protein content determined by a modified Lowry method or Standard Bradford (Bradford, M., Anal Biochem 72:248-254, 1976) methods. […] (Lillie, R. D., H. J. Conn's Biological Stains, 9th Ed., Baltimore; Williams & Wilkins, 1977.)
(§4) Cell cultures of 10^3 -10^7 cells growing in 96-well plastic microtiter plates are fixed with 50% trichloroacetic acid (TCA) for 30 minutes at 4° C. The cells are then stained with 0.4% (w/v) sulforhodamine B (SRB) dissolved in 1% acetic acid. Unbound dye is removed by 4 washes with 1% acetic acid, and protein-bound dye is extracted with 10 mM unbuffered Tris® base [tris(hydroxymethyl)aminomethane]. The optical density (OD) of this extracted solution is measured at […] in a microtiter plate ultraviolet absorbance detector. Cell viability is expressed as percent of control by dividing the optical densities and multiplying the result by 100.
(§5) Microculture Tetrazolium (MTT) Assay for Tumor Cells
(§6) Tumors are disaggregated into single cell suspensions using mechanical, hypoosmotic, and/or enzymatic (trypsin) methods. The cells are plated at a concentration of 3-5×10^4 per […] well into plastic 96-well plates. Growth medium containing 5-10% (vol/vol) heat-inactivated fetal bovine serum and penicillin/streptomycin (both […]) are added prior to incubation at 37° C. for 6 days. Afterwards the medium containing the drug is removed, the cells are centrifuged in fresh medium or phosphate-buffered saline (pH 7.4). A tetrazolium dye, […]-2,5-diphenyl tetrazolium (MTT), is then added. (Mossman, T., J Immunol 65:55-63, 1983.) This dye forms a colored formazan product upon activation by mitochondrial reductases in viable cells. Typically, the formazan product is solubilized in acid-propanol or DMSO. The intensity of the color is proportional to viable cell numbers and this is quantitated by spectrophotometric absorbance at 570 nm on a micro ELISA plate reader. The results are calibrated in % control absorbance from untreated tumor cells. (Alley, et al., Cancer Res 48:589-601, 1988.)
(§7) Table 3 gives the potencies of the new aziridine-1-carboxamides in a panel of human and murine tumor cells in culture. The tumor cell lines in this table are selected to represent a range of histological and growth phenotypes. Their characteristics are described below.
2.1 WiDr: The adenocarcinoma cell line WiDr was originally isolated by Noguchi, et al. from a primary colon tumor specimen from a patient with advanced colon carcinoma. (Noguchi, et al, In Vitro 35(6):401-407, 1979.) The WiDr MITOX cell line was developed for mitoxantrone resistance by growth in serially elevated concentration of mitoxantrone. […] (Dalton, et al., Cancer Res 48:1882-1888, 1988.)

[2] = system: A-549 lung cancer cells; experiment: In vitro antitumor activity, A-549 lung; format: cell-based; details: Homo sapiens, A549
From the text: as §1, §2, §3, §4, §5, §6, §7
3.0 A-549 Human Lung Cancer is an adenocarcinoma type of non-small cell lung cancer (NSCLC). It was established by Girard, et al. from a fresh tumor specimen obtained from a person with advanced lung cancer. (Girard, et al., J Natl Cancer Inst 51(5):1417-1423, 1973.) It has 5.6% plating efficiency (colony formation) on agar-coated plates, 66 modal chromosome number and grows rapidly when injected subcutaneously, forming acinar pattern tumors in immunodeficient mice. […]

[3] = system: tumor cell line panel; experiment: Panel of tumor cell lines in vitro; format: cell-based, human and murine; details: all 3 MCF-7 breast lines and parental WiDr colon
Procedure: as §1, §2, §4, §6
Table 3 gives the potencies of the new aziridine-1-carboxamides in a panel of human and murine tumor cells in culture. […]

For `N#CC1CN1C(=O)Nc1ccccc1` (stereo not drawn) [AMP 404, 2-Cyanoaziridine-1-(N-phenyl)carboxamide], the IC50 [1] was 0.9 µg/mL (≈ 4.81 µM), the IC50 [2] was 1.6 µg/mL (≈ 8.55 µM) and the “Tumor cell sensitivity in solid tumor lines” value (“Tumor cell sensitivity” for short) [3] was “tumor cell sensitivity increased”.
Work on `CCNC(=O)N1CC1C#N` (stereo not drawn) [AMP 406, 2-Cyanoaziridine-1-(N-ethyl)carboxamide] yielded an IC50 [1] of 5.6 µg/mL (≈ 40.2 µM) and an IC50 [2] of 2.5 µg/mL (≈ 18 µM).
`CC(C)(C)NC(=O)N1CC1C#N` (stereo not drawn) [AMP 410, 2-Cyanoaziridine-1-(N-t-butyl)carboxamide] showed an IC50 [1] of 30 µg/mL (≈ 179 µM) and an IC50 [2] of 33 µg/mL (≈ 197 µM).
`N#CC1CN1C(=O)NCc1ccccc1` (stereo not drawn) [AMP 412, 2-Cyanoaziridine-1-(N-benzyl)carboxamide] was tested, and the IC50 [1] was 1.1 µg/mL (≈ 5.47 µM) and the IC50 [2] was 1.5 µg/mL (≈ 7.45 µM).
For `N#CC1CN1C(=O)NC1CCCCC1` (stereo not drawn) [AMP 413, 2-Cyanoaziridine-1-(N-cyclohexyl)carboxamide], the IC50 [1] was 0.4 µg/mL (≈ 2.07 µM) and the IC50 [2] was 1.9 µg/mL (≈ 9.83 µM).
With `N#CC1CN1C(=O)Nc1ccc(F)cc1` (stereo not drawn) [AMP 415, 2-Cyanoaziridine-1-[N-(4-fluorophenyl)]carboxamide] the IC50 [1] was 0.4 µg/mL (≈ 1.95 µM), the IC50 [2] was 1.3 µg/mL (≈ 6.34 µM) and the “Tumor cell sensitivity” value [3] was “tumor cell sensitivity increased”.
In the case of `N#CC1CN1C(=O)Nc1ccc(C(F)(F)F)cc1` (stereo not drawn) [AMP 416, 2-Cyanoaziridine-1-[N-(4-trifluorophenyl)]carboxamide], the IC50 [1] is reported as 0.3 µg/mL (≈ 1.18 µM), the IC50 [2] is reported as 1.1 µg/mL (≈ 4.31 µM) and the “Tumor cell sensitivity” value [3] is reported as “tumor cell sensitivity increased”.
With `CCOC(=O)c1ccc(NC(=O)N2CC2C#N)cc1` (stereo not drawn) [AMP 419, 2-Cyanoaziridine-1-[N-(4-ethoxycarbonylphenyl)]carboxamide] the IC50 [2] was 1.5 µg/mL (≈ 5.79 µM).
